Consider one molecule from patent publication US20190091177A1, “METHOD OF TREATING SELECTED PATIENT POPULATION EXPERIENCING DRAVET SYNDROME” (ZOGENIX INTERNATIONAL LIMITED, priority 2017, published 2019).

Data set [1] relates to patients with Dravet syndrome. Put plainly: Study 1: Phase 3 randomized, double blind, placebo controlled study (ZX008-1501/ZX008-1502) of liquid fenfluramine formulation as adjunctive therapy. In kind it is in vivo, human. On the procedure:
The first 119 subjects to be randomized in both identical studies combined were analyzed and reported as Study 1 (FIG. 1), covered by a Statistical Analysis Plan (SAP).
Primary and key secondary endpoints in the Study 1 SAP were pre-determined. All patients were treated twice per day over a period of 14 weeks using an oral syringe to administer the formulation. The treatment period included a two-week titration period and a 12-week maintenance period.
The initial results of Study 1 are outlined below. The randomized, double blind, placebo controlled, Phase 3 study enrolled 119 patients across sites in the United States, Canada, Europe and Australia. The median age of patients was 8 years, the mean age of patients was 9 years (range, 2-18 years) (FIG. 2).
Patients were titrated to their target dose over two weeks, and then remained at that fixed dose for 12 weeks. The mean baseline convulsive seizure frequency across the study groups was approximately 40 seizures per month. 110 (92%) patients completed the study (85% 0.8 mg/kg/day; 100% 0.2 mg/kg/day; 93% placebo).
The proportion of patients who achieved ≥75% seizure reductions, a secondary (non-key) efficacy measure, is also presented.
The mean number of convulsive seizure free days, defined as a day for which diary data are available and no convulsive seizures have been reported, was determined for each treatment group during the Baseline and T+M Periods. Using a parametric analysis, comparisons for the ZX008 groups to placebo were estimated from an ANCOVA model with treatment group (3 levels) and age group (<6 years, ≥6 years) as factors, log baseline number of convulsive seizure free days as a covariate and log convulsive seizure free days (Titration+Maintenance, or Maintenance Period) as response. The mean (SD) number of convulsive seizure free days per 28 days during the Baseline Period was 12.6 (7.68), 15.7 (6.80), and 14.6 (7.59) for the placebo, 0.2 and 0.8 mg/kg/day groups, respectively. […]

In data set [2] the test system is patients with Dravet syndrome. As to conditions: cited from earlier work; for >50% Reduction in Seizures (patients) / Seizure-free Patients: fenfluramine and valproate, average daily dose 0.34 mg/kg/day for 1 to 22 years, 12 patients, 0.34 mg/kg/day.
Setting [3] is: long-term fenfluramine treatment.

Where two headings read alike, the source gives them in different places.

For `CCNC(C)Cc1cccc(C(F)(F)F)c1` (racemic) [Fenfluramine, (RS)-N-ethyl-1-[3-(trifluoromethyl)phenyl]propan-2-amine], the “Mean (SD) non-convulsive seizure frequency per 28 days at the end of the T+M Period” value in data set [1] (0.2 mg/kg/day, baseline 193.6 (478.45)) is 93.7 (219.69) per 28 days. For the same molecule, the “Reduction from Baseline in non-convulsive seizure frequency (%, [SD])” value in data set [1] (0.8 mg/kg/day, end of T+M Period) was 59.1% (40.14). The “Mean (SD) non-convulsive seizure frequency per 28 days at the end of the T+M Period” value in data set [1] (0.8 mg/kg/day, baseline 335.2 (758.58)) is 127.9 (297.39) per 28 days. In addition, in data set [2], the “>50% Reduction in Seizures (patients)” value was 9/12 (75%) and the “Seizure-free Patients” value is on record as 8/12 (66%). Besides, in data set [2] (listed as fenfluramine), the “>50% Reduction in Seizures (patients)” value was 75% and the “Seizure-free Patients” value was 66.6%. Also, in data set [2] (setting [3]), the “Echocardiography monitoring for possible heart valve defects” value is reported as “No clinically relevant defects were identified” and the “Effect on types of seizures” value was “effectively reduced the incidence of all types of seizures”.
